Reference: US9340577B2, “HLA binding motifs and peptides and their uses” (priority 1992, dated 2016)
pIC50: −log10 of the molar value. No end group written: not given here.

Key:
Assay in all cases: biochemical
DR4w4 (DRB1*0401) = DR4w4 (DRB1*0401) (Homo sapiens, UniProt P01903+P01911, A100K/A169T/F76Y/I96L/K127E/L162R/M171V/N62H/P40V/Q125Y/R42H/S133A/S149N/S66Y/V115G/V209L/W38E); assay type: binding
DR7 (DRB1*0701) = DR7 (DRB1*0701) (Homo sapiens, UniProt P01903+P01911, A100R/A102G/A103Q/D57E/D86V/E43K/F76Y/K127E/L162R/M171V/P40G/Q125H/Q99D/R33Q/R42Y/R54Q/S133A/S66F/T210M/V115G/Y107V/Y59L/Y89S); assay type: binding
DRB1*0301 = DRB1*0301 (Homo sapiens, UniProt P01903+P01911, A100K/A102G/A103R/A169T/F55Y/I96L/K41T/L162R/M171V/P40S/Q125H/Q178H/Q39Y/R42S/S66N/T106N/T262R/W38E/Y61H); assay type: binding
DRB1*0901 = DRB1*0901 (Homo sapiens, UniProt P01903+P01911, A100R/A103E/D57H/D86V/F55Y/F60I/F76Y/I96F/K127E/L162R/M171V/P40D/Q125H/Q99R/R33Q/R42F/S133A/S66N/T210M/V115G/W38K/Y107V/Y59G/Y89S); assay type: binding
DRB1*1302 = DRB1*1302 (Homo sapiens, UniProt P01903+P01911, A100E/A169T/K41T/L162R/M171V/P40S/Q125H/Q178H/Q39Y/Q99D/R42S/S66N/T262R/V115G/W38E/Y61H); assay type: binding
DRB1*1501 = DRB1*1501 (Homo sapiens, UniProt P01903+P01911); assay type: binding
DRB1*1101 = DRB1*1101 (Homo sapiens, UniProt P01903+P01911, A100R/A169T/A87E/I96F/K41T/L162R/M171V/P40S/Q125H/Q178H/Q39Y/Q99D/R42S/S66Y/T262R/V115G/W38E); conditions: Binding affinity DRB1 *1101
DRB1*0405 = DRB1*0405 (Homo sapiens, UniProt P01903+P01911, A100R/A169T/D86S/F76Y/I96L/K127E/L162R/M171V/N62H/P40V/Q125Y/R42H/S133A/S149N/S66Y/V115G/V209L/W38E); assay type: binding
DRB1*0802 = DRB1*0802 (Homo sapiens, UniProt P01903+P01911, A100R/A103L/A169T/F76Y/H45Y/I96F/K41T/L162R/M171V/P40S/Q125H/Q178H/Q39Y/Q99D/R218S/R42G/S66Y/V115G/W38E); assay type: binding
DRB1*1201 = DRB1*1201 (Homo sapiens, UniProt P01903+P01911, A100R/A169T/D57E/D86V/F55L/H45Y/K41T/L162R/M171V/P40S/Q125H/Q178H/Q39Y/Q99D/R42G/S66L/T262R/V114A/V67L/W38E/Y59H/Y61H/Y89S); assay type: binding
DRB4*0101 = DRB4*0101 (Homo sapiens, UniProt P01903+P13762, G164S); assay type: binding
DRB5*0101 = DRB5*0101 (Homo sapiens, UniProt P01903+Q30154); conditions: Binding affinity DRB5 *0101
DR1 (DRB1*0101) = DR1 (DRB1*0101) (Homo sapiens, UniProt P01903+P01911, A100R/D57E/F55L/F60I/F76Y/I96L/L162R/M171V/P40L/Q125E/R42F/V115G/Y59C); assay type: binding

Sequence of DRB1*1101 (P01903 26-254 limits assumed, other chains not shown): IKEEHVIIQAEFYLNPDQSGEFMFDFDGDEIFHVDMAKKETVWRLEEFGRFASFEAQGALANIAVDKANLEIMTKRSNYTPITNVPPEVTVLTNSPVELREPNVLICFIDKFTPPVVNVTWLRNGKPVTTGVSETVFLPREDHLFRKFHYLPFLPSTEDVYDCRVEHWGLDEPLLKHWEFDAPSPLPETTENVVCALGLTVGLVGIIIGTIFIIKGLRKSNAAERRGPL
Sequence of DRB1*1302 (P01903 26-254 limits assumed, other chains not shown): as above
Sequence of DRB1*0301 (P01903 26-254 limits assumed, other chains not shown): as above

| Sequence | pIC50 (DR4w4 (DRB1*0401)) | pIC50 (DR7 (DRB1*0701)) | pIC50 (DRB1*0301) | pIC50 (DRB1*0901) | pIC50 (DRB1*1302) | pIC50 (DRB1*1501) | pIC50 (DRB1*1101) | pIC50 (DRB1*0405) | pIC50 (DRB1*0802) | pIC50 (DRB1*1201) | pIC50 (DRB4*0101) | pIC50 (DRB5*0101) | pIC50 (DR1 (DRB1*0101)) |
| --- | --- | --- | --- | --- | --- | --- | --- | --- | --- | --- | --- | --- | --- |
| KWGVLILALLRYKCG [Peptide 89.0027] | 6.23 | < 4.70 | < 4.70 | 6.09 | 6.24 | 5.43 | 6.31 |  |  |  |  |  |  |
| LIRMECAIMYTARQM [Peptide 90.0022] | 6.36 | 6.33 |  | 5.38 | 6.62 | 5.83 | 6.13 | 6.09 | 5.51 | 6.70 | 6.80 | 5.19 |  |
| LVEVTLGEVPAAESPD [Peptide F160.17] | 6.01 |  | 5.40 |  |  |  |  |  |  |  |  |  |  |
| NGVLQGITSWGSEPC [Peptide 68.0081] |  |  | < 4.70 |  |  |  |  |  |  |  |  |  |  |
| RLNLDNDEDKENNGD [Peptide 90.0144] | 5.75 | 6.06 |  | 4.71 | 5.86 | 6.24 | 5.80 | 5.77 | 5.40 | 5.36 | 7.60 |  | 7.51 |
| TAIFGVNPTIAEGFK [Peptide 89.0024] |  | 6.74 | 6.43 | 5.35 |  | 4.94 | 5.39 | 7.77 | 4.96 |  | 6.23 | 4.75 |  |
| TPEWIERQTVLQHSF [Peptide 89.0048] | 6.35 | < 4.70 | 7.47 | < 4.70 | 5.26 | 5.22 |  |  |  |  | 7.72 | < 4.70 | 6.19 |
| TPEWIQRQTVLQHSF [Peptide 89.0010] | 7.10 | 6.49 |  | 5.54 | 5.68 | < 4.70 | 6.13 | 7.77 | 5.70 | < 4.70 | 7.48 | 5.39 |  |
| TTIYNNEEWTLRDTC [Peptide 90.0232] | < 4.70 | < 4.70 |  | < 4.70 | 6.00 | 4.99 | 5.47 | < 4.70 | < 4.70 | < 4.70 | < 4.70 | < 4.70 | 4.97 |
| TVEVQFDGDICNTMH [Peptide 90.0167] | 6.09 | 6.60 |  | 6.23 | 7.41 | 5.29 | < 4.70 | < 4.70 | < 4.70 | < 4.70 | 6.63 | < 4.70 | 5.64 |
| VMAIFGVNPTVAEGF [Peptide 89.0080] | 7.11 | 6.47 | 6.16 | 4.89 | 7.48 |  | 5.25 | 7.77 | < 4.70 |  | 7.10 | 4.71 | 6.72 |
| VMFLRYQGVEFMSFL [Peptide 89.0014] | 6.03 | 5.59 | 4.73 | 5.40 |  | 7.52 |  | 6.20 | 4.87 |  | 7.89 | 6.15 | 6.22 |
| VSKLMSQLLNIPETH [Peptide 89.0101] | 4.98 | < 4.70 | 6.04 | < 4.70 | 5.02 | < 4.70 | < 4.70 |  | < 4.70 |  | < 4.70 | < 4.70 | < 4.70 |
